T/C data for 19 molecules are collected here from PubChem BioAssay AID328 (DTP/NCI, 2004).

This test relates to BDF1 mice, P388 leukemia ip, median survival T/C. In words: NCI In Vivo Anticancer Drug Screen. Data for tumor model P388 Leukemia (intraperitoneal) in B6D2F1 (BDF1) mice. The following applies: endpoint: median survival time, higher = longer survival. Put shortly: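 In tumour-bearing mice, survival after compound treatment is set against the vehicle group and given as a quotient.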

Setting [1] is: dose: 12.5 mg/kg/injection, schedule: Q01DX009 (ip), vehicle: saline with Tween-80.
Setting [2] is: dose: 100.0 mg/kg/injection, schedule: Q04DX003 (ip), vehicle: saline with Tween-80.
[3] abbreviates: dose: 200.0 mg/kg/injection, schedule: Q04DX003 (ip), vehicle: saline with Tween-80.
Setting [4] is: dose: 400.0 mg/kg/injection, schedule: Q04DX003 (ip), vehicle: saline with Tween-80.
The mark [5] stands for this setting: dose: 50.0 mg/kg/injection, schedule: Q01DX009 (ip), vehicle: saline with Tween-80.
Where [6] appears, read: dose: 100.0 mg/kg/injection, schedule: Q01DX009 (ip), vehicle: saline with Tween-80.
Where [7] appears, read: dose: 200.0 mg/kg/injection, schedule: Q01DX009 (ip), vehicle: saline with Tween-80.
Setting [8] is: dose: 100.0 mg/kg/injection, schedule: Q04DX003 (ip), vehicle: Klucel (hydroxypropylcellulose) (HPC).
Setting [9] is: dose: 200.0 mg/kg/injection, schedule: Q04DX003 (ip), vehicle: Klucel (hydroxypropylcellulose) (HPC).
The mark [10] stands for this setting: dose: 400.0 mg/kg/injection, schedule: Q04DX003 (ip), vehicle: Klucel (hydroxypropylcellulose) (HPC).
The mark [11] stands for this setting: dose: 50.0 mg/kg/injection, schedule: Q04DX003 (ip), vehicle: saline with Tween-80.
Where [12] appears, read: dose: 100.0 mg/kg/injection, schedule: Q01DX009 (ip), vehicle: Klucel (hydroxypropylcellulose) (HPC).
[13] abbreviates: dose: 200.0 mg/kg/injection, schedule: Q01DX009 (ip), vehicle: Klucel (hydroxypropylcellulose) (HPC).
The mark [14] stands for this setting: dose: 400.0 mg/kg/injection, schedule: Q01DX009 (ip), vehicle: Klucel (hydroxypropylcellulose) (HPC).

Several values for one entry are separate records, joined by “and”; a condition that tells them apart may be missing. Identical values can stand only once. Toxic doses and inconclusive results are not listed.

On to `CCc1cccc(CC)c1N1C(=O)C=CC1=O`, for which the T/C (dose: 1.56 mg/kg/injection, schedule: Q01DX009 (ip), vehicle: saline with Tween-80) is 114 % of control; the T/C (dose: 3.13 mg/kg/injection, schedule: Q01DX009 (ip), vehicle: saline with Tween-80) was 100 % of control; the T/C (dose: 6.25 mg/kg/injection, schedule: Q01DX009 (ip), vehicle: saline with Tween-80) is 106 % of control; the T/C under setting [1] is 99 % of control.

Consider `N/C(=N\OS(=O)(=O)c1ccccc1)Oc1ccccc1`, for which the T/C is 97 % of control under setting [2], 95 % of control under setting [3] and 99 % of control under setting [4].

For the molecule `CCSC1(SCC)C(=O)OC2=C(CCCCCC2)C1N(C)C` (configuration not stated), the T/C was 96 % of control under setting [5], 99 % of control under setting [6] and 99 % of control under setting [7].

Turning to `CCOC(=O)N(CC)c1ccccc1`, the T/C runs as follows: under setting [8], 90 % of control; under setting [9], 104 % of control; under setting [10], 100 % of control.

For the molecule `CCCCC(=O)N/N=C(\C)[C@]1(O)Cc2c(O)c3c(c(O)c2[C@@H](OC2CC(N)C(O)C(C)O2)C1)C(=O)c1c(OC)cccc1C3=O` (some centres not stated), the T/C reads like this: (dose: 0.78 mg/kg/injection, schedule: Q01DX009 (ip), vehicle: saline) 109 % of control; (dose: 1.56 mg/kg/injection, schedule: Q01DX009 (ip), vehicle: saline) 109 % of control; (dose: 1.56 mg/kg/injection, schedule: Q01DX009 (ip), vehicle: water) 157 % of control; (dose: 3.12 mg/kg/injection, schedule: Q01DX009 (ip), vehicle: saline) 122 % of control; (dose: 3.12 mg/kg/injection, schedule: Q01DX009 (ip), vehicle: water) 172 % of control; (dose: 6.25 mg/kg/injection, schedule: Q01DX009 (ip), vehicle: saline) 178 % of control.

In the case of `CC(CO)(CI)[n+]1ccccc1` (configuration not stated), the T/C reads like this: (dose: 25.0 mg/kg/injection, schedule: Q01DX009 (ip), vehicle: saline with Tween-80) 103 % of control; under setting [5], 107 % of control; under setting [11], 95 % of control; under setting [2], 100 % of control.

`CC(C)COC(=O)CN(CC(=O)OCC(C)C)c1ccccc1`: the T/C by setting is: under setting [6], 95 % of control; under setting [7], 100 % of control; (dose: 400.0 mg/kg/injection, schedule: Q01DX009 (ip), vehicle: saline with Tween-80) 110 % of control.

Consider `Cc1c[n+]([O-])ccc1[N+](=O)[O-]`, for which the T/C is 100 % of control (dose: 25.0 mg/kg/injection, schedule: Q01DX009 (ip), vehicle: saline); 104 % of control (dose: 50.0 mg/kg/injection, schedule: Q01DX009 (ip), vehicle: saline); 100 % of control (dose: 50.0 mg/kg/injection, schedule: Q04DX003 (ip), vehicle: saline); 90 % of control and 95 % of control (dose: 100.0 mg/kg/injection, schedule: Q04DX003 (ip), vehicle: saline); 100 % of control (dose: 150.0 mg/kg/injection, schedule: Q04DX003 (ip), vehicle: saline); 86 % of control (dose: 200.0 mg/kg/injection, schedule: Q04DX003 (ip), vehicle: saline).

On to `Cc1cc(C)c(S(=O)(=O)O)cc1C`, for which the T/C by setting is: under setting [11], 104 % of control; under setting [2], 100 % of control.

On to `COC(=O)[C@@H]1[C@H](O)[C@H](C)[C@H](O)[C@@](C)(O)/C=C\C=C(C)C(=O)Nc2c(C)c(OC(C)=O)c3c(c2O)C(=O)C(C)=C2OCOC(=C23)C(C)=C[C@@](C)(O)[C@H](O)[C@@H](C)[C@H]1OC(C)=O`, for which the T/C is 93 % of control and 105 % of control under setting [12]; 120 % of control and 108 % of control under setting [13]; 121 % of control and 113 % of control under setting [14]; 90 % of control (dose: 400.0 mg/kg/injection, schedule: Q01DX009 (ip), vehicle: saline).

In the case of `O=C1N(Br)C(=O)C(c2ccc(Cl)cc2)(c2ccc(Cl)cc2)N1Br`, the T/C was 113 % of control under setting [1]; 90 % of control (dose: 45.0 mg/kg/injection, schedule: Q04DX003 (ip), vehicle: Klucel (hydroxypropylcellulose) (HPC)); 172 % of control under setting [5]; 95 % of control (dose: 65.0 mg/kg/injection, schedule: Q04DX003 (ip), vehicle: Klucel (hydroxypropylcellulose) (HPC)); 150 % of control (dose: 100.0 mg/kg/injection, schedule: Q04DX003 (ip), vehicle: alcohol); 115 % of control (dose: 100.0 mg/kg/injection, schedule: Q04DX003 (ip), vehicle: saline sonified). Besides, the T/C runs as follows: (dose: 130.0 mg/kg/injection, schedule: Q01DX009 (ip), vehicle: Klucel (hydroxypropylcellulose) (HPC)) 156 % of control; (dose: 132.0 mg/kg/injection, schedule: Q01DX009 (ip), vehicle: Klucel (hydroxypropylcellulose) (HPC)) 95 % of control; (dose: 132.0 mg/kg/injection, schedule: Q04DX003 (ip), vehicle: Klucel (hydroxypropylcellulose) (HPC)) 177 % of control; (dose: 132.0 mg/kg/injection, schedule: Q04DX003 (ip), vehicle: saline) 165 % of control; (dose: 200.0 mg/kg/injection, schedule: Q01DX003 (ip), vehicle: Klucel (hydroxypropylcellulose) (HPC)) 154 % of control; under setting [13], 175 % of control. Further, the T/C by setting is: under setting [9], 154 % of control; (dose: 200.0 mg/kg/injection, schedule: Q04DX003 (ip), vehicle: alcohol) 185 % of control; (dose: 200.0 mg/kg/injection, schedule: Q04DX003 (ip), vehicle: saline sonified) 160 % of control; (dose: 300.0 mg/kg/injection, schedule: Q04DX003 (ip), vehicle: saline) 150 % of control; (dose: 400.0 mg/kg/injection, schedule: Q04DX003 (ip), vehicle: alcohol) 150 % of control.

For `COc1cc(C(C)O)cc(OC)c1OC` (configuration not stated), the T/C under setting [6] was 92 % of control; the T/C under setting [2] is 95 % of control; the T/C under setting [7] was 92 % of control; the T/C under setting [3] was 104 % of control; the T/C under setting [4] is 95 % of control.

Take `Clc1cc(C(Cl)(Cl)Cl)c(Cl)cc1C(Cl)(Cl)Cl`: the T/C reads like this: under setting [2], 100 % of control; under setting [3], 105 % of control; under setting [4], 110 % of control.

On to `CC(=O)OCC(COC(C)=O)=C1N=C(c2ccccc2)OC1=O`, for which the T/C under setting [5] is 107 % of control; the T/C under setting [6] is 96 % of control; the T/C under setting [2] was 118 % of control; the T/C under setting [7] is 115 % of control; the T/C under setting [4] is 118 % of control.

As for `Cc1ccc(/C=C2/C=C(c3ccccc3)OC2=O)cc1`, the T/C is, setting by setting: (dose: 50.0 mg/kg/injection, schedule: Q01DX009 (ip), vehicle: Klucel (hydroxypropylcellulose) (HPC)) 109 % of control; under setting [12], 109 % of control; under setting [8], 100 % of control; under setting [13], 100 % of control; under setting [9], 95 % of control; under setting [10], 90 % of control.

On to `Cc1ccc(S(=O)(=O)N(C)CCC#N)cc1`, for which the T/C runs as follows: under setting [12], 90 % of control; under setting [8], 90 % of control; under setting [13], 100 % of control; under setting [9], 100 % of control; under setting [14], 110 % of control; under setting [10], 109 % of control.

Regarding `COc1ccccc1NC(=O)O/N=C/c1ccccn1`, the T/C reads like this: (dose: 100.0 mg/kg/injection, schedule: Q01DX001 (ip), vehicle: other) 100 % of control; (dose: 200.0 mg/kg/injection, schedule: Q01DX001 (ip), vehicle: other) 95 % of control; (dose: 400.0 mg/kg/injection, schedule: Q01DX001 (ip), vehicle: other) 95 % of control.

As for `CC(=O)Oc1cc(OC(C)=O)c2c(ccc3ccccc32)c1`, the T/C under setting [2] is 93 % of control, the T/C under setting [3] is 97 % of control and the T/C under setting [4] is 93 % of control.

Take `CN(C)N=Nc1ccc(NC(N)=O)cc1`: the T/C (dose: 25.0 mg/kg/injection, schedule: Q04DX003 (ip), vehicle: saline + Tween-80 + alcohol) is 112 % of control.
